The values that follow come from US20240293418A1, “COMBINATION THERAPY FOR TREATING CANCER” (Epizyme, Inc., priority 2016, published 2024).

Like-named read-outs stand apart in the source and are kept apart here.

For test [1], the system named is KMS-28-BM. The test is described as follows: 7-day co-treatment combination model (Cell Titer Glo). The settings on record: for IC50: KMS-28BM, 168 h, read-out: 7-day IC50; for combinatorial effect by Loewe volumes / Loewe volume: second agent + tazemetostat; for combinatorial effect by Loewe volumes: 7-day co-treatment, KMS-28-BM t(4;14); for Loewe volume: 7 day co-treatment, KMS-28-BM. For orientation: In ATP-based viability assays light output follows the ATP content of the culture.
Experimental: (§1) Assay plates were developed for endpoint analysis using Cell Titer Glo to measure ATP content, which was used as an indicator of cell viability. DMSO concentration was kept constant throughout the assay at less than 0.2% v/v.
(§2) All cells were maintained as instructed by the supplier and cultures were maintained at 37° C. in a humidified atmosphere and 5% CO2.
(§3) Loewe volumes greater than 1 denoted synergy and volumes <−1 denoted antagonism.

For test [2], the system named is Ikaros, Aiolos, IRF4 expression in RPMI-8226 cells. In words: western blot of Ikaros, Aiolos, IRF4 in RPMI-8226 cells. It is filed as cell-based. To be noted: 3 days. In general terms: A western blot detects proteins with antibodies after separation by electrophoresis.
Test [3] relates to L-363. In words: 7 day pretreatment + 4-day co-treatment combination model (Cell Titer Glo). The settings on record: for IC50: Homo sapiens, L-363, 96 h, read-out: 4-day IC50; for combinatorial effect by Loewe volumes: second agent + tazemetostat, 7 day pretreatment + 4-day co-treatment, L-363 t(20;22).
Text: as §1
(§4) Cell lines: The cell lines MI1.S and U266B1 were obtained from American Type Culture Collection (ATCC; Rockville, MD). The cell lines LP-1, L-363 were obtained from Deutsche Sammlung von Mikroorganismen and Zellkulturen (DSMZ; Braunschweig, Germany) and the cell line KMS-28BM was obtained from Japanese Collection of Research Bioresources Cell Bank (JCRB, Osaka Japan). All cells were maintained as instructed by the supplier and cultures were maintained at 37° C. in a humidified atmosphere and 5% CO2.
as §3
Test [4] relates to MOLP-8. The description is as above. To be noted: second agent + tazemetostat, MOLP-8 t(11;14).
Experimental: as §1, §2, §3
Test [5] relates to U266. Described as above. The settings on record: for IC50: Homo sapiens, U-266, 96 h, read-out: 4-day IC50; for combinatorial effect by Loewe volumes: second agent + tazemetostat, 7 day pretreatment + 4-day co-treatment, U266 t(11;14).
Text: as §1, §4, §3
Test [6] deals with LP-1. In words: 7-day co-treatment combination model (Cell Titer Glo). The settings on record: for combinatorial effect by Loewe volumes: 7-day co-treatment, LP-1 t(4;14).
Experimental: as §1, §2, §3
Test [7] deals with KMS-28-BM. In words: 7 day pretreatment + 4-day co-treatment combination model (Cell Titer Glo). The settings on record: for IC50: KMS-28BM, 96 h, read-out: 4-day IC50; for Loewe volume / combinatorial effect by Loewe volumes: second agent + tazemetostat, 7 day pretreatment + 4-day co-treatment; for Loewe volume: KMS-28-BM; for combinatorial effect by Loewe volumes: KMS-28-BM t(4;14).
Experimental: as §1, §2, §3

In test [8] the test system is LP-1. Described as above. The settings on record: for IC50: Homo sapiens, LP-1, 96 h, read-out: 4-day IC50; for combinatorial effect by Loewe volumes: second agent + tazemetostat, 7 day pretreatment + 4-day co-treatment, LP-1 t(4;14).
Text: as §1, §4, §3
Test [9] has as its system RPMI-8226. The test is described as follows: apoptosis in RPMI-8226 cells. It is filed as cell-based. The settings on record: tazemetostat 31, 125, 500 nM + pomalidomide 3, 12.5, 50 nM, 3 days.
In test [10] the test system is MOLP-8. The test is described as follows: 7-day co-treatment combination model (Cell Titer Glo). To be noted: second agent + tazemetostat; for combinatorial effect by Loewe volumes: 7-day co-treatment, MOLP-8 t(11;14); for Loewe volume: 7 day co-treatment, MOLP-8.
Experimental: as §1, §2, §3
Test [11] concerns MM1.S. In words: 7 day pretreatment + 4-day co-treatment combination model (Cell Titer Glo). The settings on record: Homo sapiens, MM1.S, 96 h, read-out: 4-day IC50.
Text: as §1, §4, §3
The subject of test [12] is MM1.S. In words: 7-day co-treatment combination model (Cell Titer Glo). To be noted: for IC50: Homo sapiens, 168 h, read-out: 7-day IC50.
Experimental: as §1
(§5) Cell lines: The cell lines MI1.S and U266B1 were obtained from American Type Culture Collection (ATCC; Rockville, MD). […] All cells were maintained as instructed by the supplier and cultures were maintained at 37° C. in a humidified atmosphere and 5% CO2.
as §3
Test [13] deals with RPMI-8226. Described as above.
Experimental: as §1, §5, §3
Test [14] deals with Granta-519. In words: mantle cell lymphoma 7 day pretreatment + 4-day co-treatment model (Cell Titer Glo).
Text: (§6) Cells were then co-treated in triplicate with a second compound, 3-fold serially diluted for additional 4 days. After this time, plates were developed for endpoint analysis using Cell Titer Glo to measure ATP content, which is used as an indicator of cell viability.
(§7) A Loewe volume greater than 1 denoted synergy. A Loewe volume between −1 and 1 denoted additivity, and a negative Loewe volume of less than −1, denoted antagonism.
The subject of test [15] is Granta-519. The test is described as follows: mantle cell lymphoma 7 day co-treatment model. It is filed as cell-based.
The subject of test [16] is multiple myeloma cell lines and primary patient samples. To be noted: reported in the literature; cited from earlier work.
The test system of test [17] is U266.
Experimental: as §1, §5, §3
Test [18] relates to Jeko-1. The test is described as follows: mantle cell lymphoma 7 day co-treatment model. It is filed as cell-based.
For test [19], the system named is Jeko-1. In words: mantle cell lymphoma 7 day pretreatment + 4-day co-treatment model (Cell Titer Glo).
Text: as §6, §7
The test system of test [20] is L-363.
Experimental: as §1, §5, §3
[21] abbreviates: second agent + tazemetostat, 7 day co-treatment.
The mark [22] stands for this setting: second agent + tazemetostat, 7 day pretreatment + 4-day co-treatment, Granta-519.
[23] abbreviates: Homo sapiens, 168 h, second agent alone, 7 day co-treatment model.
[24] abbreviates: second agent + tazemetostat, 7 day pretreatment + 4-day co-treatment, Jeko-1.

As to `Nc1cccc2c1C(=O)N(C1CCC(=O)NC1=O)C2=O` (stereo not shown) [Pomalidomide, pomalidomide], the IC50 – broadly, the concentration needed to halve the response being measured – in the test on KMS-28-BM [1] is 100 nM; in the test on L-363 [3] it was 69 nM; with U266 [5] it was > 10000 nM; with KMS-28-BM [7] it was 2540 nM; in the test on LP-1 [8], 106 nM; in the test with MM1.S [11] it was 47 nM. For the same compound, the IC50 with MM1.S [12] was 35.2 nM. In addition, the “combinatorial effect by Loewe volumes” value in the test with KMS-28-BM [1], in the test with L-363 [3], in the test with MOLP-8 [4], in the test with U266 [5], in the test with LP-1 [6] (second agent + tazemetostat) and with KMS-28-BM [7] was “S (Synergy)” throughout. Also, the “combinatorial effect by Loewe volumes” value in the test with LP-1 [8] and in the test with MOLP-8 [10] was “S (Synergy)” in each case. The Loewe volume in the test on KMS-28-BM [1] was 7.65; in the test on KMS-28-BM [7], 6.37; in the test on MOLP-8 [10], 5.73; in the test with RPMI-8226 [13] (setting [21]) it was 3.9. Further, the “IRF4 expression, combined treatment” value in test [2] (pomalidomide + tazemetostat vs either alone) is “enhances repression of IRF4”. Also, in test [2] (single agent 12.5, 50 or 200 nM), the “Ikaros and Aiolos levels” value was “results in Ikaros and Aiolos degradation”. Further, the apoptosis result in the test with RPMI-8226 [9] is reported as “enhanced apoptosis”. Further, the “curve shift analysis of combination” value with RPMI-8226 [13] (pomalidomide + tazemetostat, 7-day combination assay (FIG. 8)) is reported as “synergy”.

As to `CC1(C)CCC(CN2CCN(c3ccc(C(=O)NS(=O)(=O)c4ccc(NCC5CCOCC5)c([N+](=O)[O-])c4)c(Oc4cnc5[nH]ccc5c4)c3)CC2)=C(c2ccc(Cl)cc2)C1` [Venetoclax, venetoclax], the “combinatorial effect by Loewe volumes” value is “A (Additive)” in the test on MOLP-8 [4]; “S (Synergy)” with LP-1 [6] (second agent + tazemetostat); “S (Synergy)” with KMS-28-BM [7]; “S (Synergy)” with LP-1 [8]; “A (Additive)” in the test on MOLP-8 [10]. The IC50 with Granta-519 [14] (Homo sapiens, Granta-519, read-out: Second agent IC50) stood at 58 nM; in the test with Granta-519 [15] (setting [23]) it was 41 nM. The results for the “Best CI” value in the test on Granta-519 [14] (setting [22]) and with Granta-519 [15] (setting [21]) were 0.09 and 0.43, respectively. Further, the “Bliss Volume” value was determined as 3.95 with Granta-519 [14] (setting [22]) and 1.76 in the test with Granta-519 [15] (setting [21]). In addition, the “HSA Volume” value worked out at 7.17 with Granta-519 [14] (setting [22]) and 3.06 with Granta-519 [15] (setting [21]). The “Loewe Volume” value in the test on Granta-519 [14] (setting [22]) was found to be 6.72; with Granta-519 [15] (setting [21]) it was 2.73. Moreover, the entries for the “Synergy Score” value in the test with Granta-519 [14] (setting [22]) and in the test on Granta-519 [15] (setting [21]) were 7.23 and 3.82, respectively.

In the case of `Cc1nc2cccc(N)c2c(=O)n1C1CCC(=O)NC1=O` (stereo not shown) [CC-122], the results for the Loewe volume in the test with MM1.S [12] (setting [21]) and with RPMI-8226 [13] (setting [21]) were 1.93 and 2.29, respectively.

Turning to `CCCc1cc(C)[nH]c(=O)c1CNC(=O)c1cc(-c2ccnc(N3CCN(C)CC3)c2)cc2c1cnn2C(C)C` [GSK343], the “growth of multiple myeloma cell lines and primary patient samples” value in test [16] is recorded as “inhibited”.

In the case of `CC(C)C[C@H](NC(=O)[C@H](Cc1ccccc1)NC(=O)c1cnccn1)B(O)O` [Bortezomib, bortezomib], the IC50 in the test on KMS-28-BM [1] was 5.22 nM; in the test on L-363 [3] it was 5 nM; in the test with U266 [5], 2 nM; with KMS-28-BM [7], 3 nM; in the test with LP-1 [8], 3 nM; in the test on MM1.S [11], 1.4 nM. The IC50 with MM1.S [12] was 1.92 nM. Further, the vbliss entry with RPMI-8226 [13] (second agent + tazemetostat, 7 day co-treatment, printed in Loewe volume column) is “vbliss: 0.24”.

Turning to `CCN(c1cc(-c2ccc(CN3CCOCC3)cc2)cc(C(=O)NCc2c(C)cc(C)[nH]c2=O)c1C)C1CCOCC1` [Tazemetostat, tazemetostat], the “IRF4 expression, single agent” value in [2] (single agent 31, 125 or 500 nM) is on record as “reduces TRF4 expression”.

In the case of `C[C@@H]1C[C@H]2[C@@H]3CCC4=CC(=O)C=C[C@]4(C)[C@@]3(F)[C@@H](O)C[C@]2(C)[C@@]1(O)C(=O)CO` [Dexamethasone, dexamethasone], the concentration for half-maximal inhibition (IC50) with KMS-28-BM [1] is 2.7 nM; in the test on U266 [17], > 10000 nM; in the test with Jeko-1 [18] (setting [23]), 780 nM; in the test with L-363 [3] it was 7 nM; in the test with Jeko-1 [19] (Homo sapiens, JeKo-1, 96 h, read-out: Second agent IC50), > 10000 nM; in the test with U266 [5], > 10000 nM. Besides, the IC50 in the test with LP-1 [6] (Homo sapiens, LP-1, 168 h, read-out: 7-day IC50) turned out to be 5 nM; in the test on KMS-28-BM [7], 6 nM; in the test with LP-1 [8], 4 nM; in the test on L-363 [20] it was 3.5 nM; with MM1.S [11], 12 nM; with MM1.S [12], 7 nM. Moreover, the “combinatorial effect by Loewe volumes” value is listed as “S (Synergy)” in the test with KMS-28-BM [1]; “A (Additive)” with L-363 [3]; “S (Synergy)” in the test with MOLP-8 [4]; “A (Additive)” in the test with U266 [5]; “S (Synergy)” in the test on LP-1 [6] (second agent + tazemetostat); “S (Synergy)” in the test on KMS-28-BM [7]. Moreover, the “combinatorial effect by Loewe volumes” value in the test with LP-1 [8] and with MOLP-8 [10] was “S (Synergy)” throughout. In addition, the Loewe volume was 4.34 in the test with KMS-28-BM [1]; 4.79 with LP-1 [6] (second agent + tazemetostat, 7 day co-treatment, LP-1); 2.45 in the test on KMS-28-BM [7]; 3.61 in the test with MOLP-8 [10]; 1.73 in the test on RPMI-8226 [13] (setting [21]). Moreover, the “Best CI” value amounted to 0.16 with Jeko-1 [18] (setting [21]) and 0.22 in the test on Jeko-1 [19] (setting [24]). In addition, the “Bliss Volume” value with Jeko-1 [18] (setting [21]) is 2.96; in the test on Jeko-1 [19] (setting [24]), 4.48. Moreover, the results for the “HSA Volume” value in the test on Jeko-1 [18] (setting [21]) and in the test on Jeko-1 [19] (setting [24]) were 5.19 and 7.04, respectively. In addition, the entries for the “Loewe Volume” value with Jeko-1 [18] (setting [21]) and in the test on Jeko-1 [19] (setting [24]) were 4.32 and 6.91, respectively. The results for the “Synergy Score” value in the test on Jeko-1 [18] (setting [21]) and in the test on Jeko-1 [19] (setting [24]) were 4.36 and 6.33, respectively.

Regarding `Cc1[nH]c2ccccc2c1CCNCc1ccc(/C=C/C(=O)NO)cc1` [Panobinostat, panobinostat], the IC50 with KMS-28-BM [1] is 1.26 nM; in the test on L-363 [3] it was 3 nM; in the test with U266 [5], 5 nM; in the test on KMS-28-BM [7] it was 2.5 nM; in the test on LP-1 [8], 3 nM; in the test with MM1.S [11] it was 5.8 nM. The 50% inhibitory concentration (IC50) in the test with MM1.S [12] stood at 1.34 nM. The “combinatorial effect by Loewe volumes” value in the test with KMS-28-BM [1] is recorded as “S (Synergy)”; in the test with L-363 [3], “S (Synergy)”; in the test on MOLP-8 [4], “A (Additive)”; in the test on U266 [5], “S (Synergy)”; in the test on LP-1 [6] (second agent + tazemetostat), “S (Synergy)”; in the test on KMS-28-BM [7] it was “S (Synergy)”. Moreover, the “combinatorial effect by Loewe volumes” value in the test on LP-1 [8] and with MOLP-8 [10] was “S (Synergy)” in each case. Also, the Loewe volume in the test with KMS-28-BM [1] amounted to 5.19; in the test on KMS-28-BM [7], 2.03; in the test on MOLP-8 [10], 2.14; in the test on RPMI-8226 [13] (setting [21]), 2.24.
